Measured values as given in PubChem BioAssay (NCI).
Where “and” joins values, the source holds several entries; their conditions need not be identical. Equal entries are not always repeated.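 Tested at 5 concentrations; 48 h exposure; 96-well plates; endpoints linearly interpolated, else capped at highest concentration. GI50 = concentration required for 50% inhibition of growth. TGI is the concentration that stops growth completely.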 Where a SMILES comes first, the peptide text is derived from it. [ ]: non-standard residue; d: D form. The star is where a group is joined. Phe(4-NO2) = N[CH](Cc1ccc([N+](=O)[O-])cc1)C(=O)O; Boc = CC(C)(C)OC(=O)*

What was measured:
Assay in all cases: NCI tumour cell line growth inhibition, 48 h
[1] = tested on: UO-31 renal
[2] = tested on: NCI/ADR-RES ovarian
[3] = tested on: SK-MEL-5 melanoma
[4] = tested on: SR leukemia
[5] = tested on: COLO 205 colon
[6] = tested on: RXF 393 renal
[7] = tested on: A498 renal
[8] = tested on: CAKI-1 renal
[9] = tested on: T-47D breast
[10] = tested on: TK-10 renal
[11] = tested on: DU-145 prostate
[12] = tested on: MOLT-4 leukemia

SMILES | TGI [1] | TGI [2] | TGI [3] | TGI [4] | TGI [5] | TGI [6] | TGI [7] | TGI [8] | TGI [9] | TGI [10] | TGI [11] | TGI [12] | GI50 [2] | GI50 [7]
N#Cc1ccc(-n2c3ccccc3c3ccc4c(c32)C(=O)C=CC4=O)cc1 | 3.02 µM | 53.9 µM | 12.2 µM | 6.92 µM | 10.5 µM | 5.32 µM | 11 µM | 2.72 µM | > 100 µM | 8.83 µM | > 24.7 µM |  |  | 
CC1=C(C(=O)Nc2ccccc2)C2(CCCCC2)C(C#N)=C(SCC(=O)Nc2ccc(Br)cc2)N1 | 2.76 µM | 27.3 µM | 8.39 µM | 6.11 µM | 4.53 µM | 14.1 µM | 19.6 µM | 17.6 µM | 92.5 µM | > 45.4 µM | > 100 µM | 9 µM |  | 
N#Cc1c(N)nc(Sc2ccccc2N)c(C#N)c1-c1ccc(Cl)cc1 | 9.64 µM | 35.5 µM | > 55 µM | > 40.5 µM | > 100 µM | 49.9 µM | 16.9 µM | 45 µM | 4.24 µM | > 48.5 µM | > 58.2 µM | > 24.6 µM |  | 
Cc1nc2c(=O)n(C)ncc2[nH]1 | > 100 µM | > 100 µM | > 100 µM | > 100 µM | > 100 µM | > 100 µM | > 100 µM | > 100 µM | > 100 µM | > 100 µM | > 100 µM | > 100 µM |  | 
CCC(=O)Nc1ccc(N2C(=O)C(Cl)C2c2ccc(SC)cc2)cc1 (configuration not stated) | > 100 µM | > 100 µM | 79.8 µM | > 100 µM | > 100 µM | > 100 µM | > 100 µM | > 100 µM | > 100 µM |  | > 100 µM | > 100 µM |  | 
Cn1c(-c2cccc([N+](=O)[O-])c2)[n+](C)c2ccccc21 | > 100 µM | > 100 µM | > 100 µM | > 100 µM | > 100 µM | > 100 µM | > 100 µM | > 100 µM | > 100 µM | > 100 µM | > 100 µM | > 100 µM |  | 
COC(=O)C1OC(O[C@H]2CC[C@]3(C)[C@H]4CC=C5[C@@H]6CC(C)(C)CC[C@]6(C(=O)OC6OCC(O)C(O)C6OC6OC(C)C(OC7OCC(O)C(O)C7O)C(O)C6O)CC[C@@]5(C)[C@]4(C)CC[C@H]3C2(C)C)C(O)C(O)C1O (some centres not stated) | 26.5 µM and 36 µM | > 100 µM | 31.8 µM and 32.5 µM | 32 µM and 24.9 µM | 25.8 µM and 30.6 µM | 37 µM and 40.7 µM | 20 µM and 35.3 µM | 25.9 µM and 34.9 µM | > 100 µM and 54.2 µM |  | 33.7 µM and 47.8 µM | 38.9 µM and 45 µM | 24 µM and > 100 µM | 7.25 µM and 20.7 µM
CN(C)c1nc(Cl)c2c(-c3ccccc3)c(-c3ccccc3)oc2n1 | > 100 µM | > 100 µM | > 100 µM | > 100 µM | > 100 µM | 45.2 µM | > 100 µM | > 100 µM | > 100 µM | > 100 µM | > 100 µM | 96.2 µM |  | 
C[C@@H]1CC[C@@H]2[C@@H](C1)O[C@@H]([C@H](C)OCc1ccccc1)SC2(C)C | 29.6 µM | 75.5 µM | 33 µM | 35.6 µM | 34 µM | 33.4 µM | 39.3 µM | > 100 µM | 32.9 µM | > 100 µM | > 100 µM | 34.9 µM |  | 
CCOC(=O)c1c(N2CCOCC2)[nH]c(=O)c(C(c2ccco2)c2c(O)c(C(=O)OCC)c(N3CCOCC3)[nH]c2=O)c1O | > 100 µM | > 100 µM | > 100 µM | > 100 µM | > 100 µM | > 100 µM | > 100 µM | > 100 µM | > 100 µM | > 100 µM | > 100 µM | > 100 µM |  | 
O=[N+]([O-])c1cc(-c2nc(-c3ccccc3)c(-c3ccccc3)[nH]2)c(O)c([N+](=O)[O-])c1 | 33.4 µM | 56.7 µM | 36 µM | 58.7 µM | 45.1 µM | 44.8 µM | 40.5 µM | 77.6 µM | 68.3 µM | 65.8 µM | 55.4 µM | 61.7 µM |  | 
CC(=O)OCc1ccc2oc(=O)c(C(=O)Oc3ccccc3)cc2c1 | > 100 µM | > 100 µM | > 100 µM | > 100 µM | > 100 µM | > 100 µM | > 100 µM | 38.5 µM | 37.3 µM | 62.8 µM | > 100 µM | > 100 µM |  | 
COC(=O)c1ccccc1C1CN=NC12Cc1cc(C)ccc1C2=O (configuration not stated) | > 100 µM | > 100 µM | > 100 µM | > 100 µM | > 100 µM | > 100 µM | > 100 µM | > 100 µM | > 100 µM | > 100 µM | > 100 µM | > 100 µM |  | 
COc1ccc(C(=O)/C=C/c2cc(O)c(O)c(F)c2F)c(OC)c1 | > 100 µM | 67.7 µM | 25.3 µM | 26.8 µM | 53.1 µM | 59.6 µM | 55.5 µM | > 100 µM | > 100 µM | 88 µM | > 100 µM |  |  | 
CCCCCCCCCCCCCCCCCCN(C)CC(COP(=O)([O-])OCC[N+](C)(C)C)OC (configuration not stated) | 48.8 µM | > 100 µM | 43.8 µM | 28.6 µM | 8.47 µM | 8.55 µM | 39.3 µM | 20.9 µM | > 100 µM | 8.46 µM | > 100 µM | 11.3 µM |  | 
COc1cc(CNNC(N)=S)cc(OC)c1OC | > 100 µM | > 100 µM | > 100 µM | > 100 µM | > 100 µM | > 100 µM | > 100 µM | > 100 µM | > 100 µM | > 100 µM | > 100 µM | > 100 µM |  | 
CNC(=O)CCC(NC(=O)OC(C)(C)C)C(=O)NC(Cc1ccc([N+](=O)[O-])cc1)C(=O)NCC(=O)NC (configuration not stated) (Boc-Glu(NHMe)-[Phe(4-NO2)]-Gly-NHMe; configuration not given here) | > 100 µM | > 100 µM | > 100 µM | > 100 µM | > 100 µM | > 100 µM | > 100 µM | > 100 µM | > 100 µM | > 100 µM | > 100 µM | > 100 µM |  | 
